One data set is described as follows: Intracellular ATP levels. It is filed as cell-based. Particulars: rat, NRK cells, read-out: ATP TC50. The method, then:
Intracellular ATP Levels: Cellular Adenosine triphosphate (ATP) was determined with an assay based on a reaction between ATP+D-luciferin+oxygen catalyzed by luciferase to yield Oxyluciferin+AMP+PPi+CO2+light. The emitted light is proportional to the amount of ATP present. […] In addition, a unique cell lysis reagent inhibits endogenous ATPases and therefore stabilizes cellular ATP by preventing its degradation to ADP. ATP is present in all-living cells and declines rapidly upon cell death. In addition, this assay in combination with the MTT assay provides an indicator of mitochondrial activity and energy status of the cell.
Plates were analyzed immediately or stored at −20° C. until needed. On the day of analysis, the plates were thawed and calibration curve prepared with ATP in the same liquid matrix as samples. ATP was quantified by adding ATP substrate solution and then reading luminescence on a Packard Fusion Luminescence or equivalent plate reader.
Intracellular ATP Levels: ATP levels in treated cells could be determined by using the regression coefficients obtained from the linear regression analysis of the calibration curve. Thus, values could be expressed as pmoles ATP/million cells. Background corrected luminescence was used to determine percent change relative to controls by dividing treated values by control values and multiplying by 100.
The third experiment was done to evaluate the specificity and selectivity of the test compound in another non-tumor cell that was derived from normal rat kidney tissue. In this experiment the test compound has no effect on cell number of acute cell death up to the 500 dilution after 6 and 24 hr of exposure (FIG. 76C and 77C). Significant effects were observed on mitochondrial markers at dilutions that dropped pH to 3.7. The bar graph in FIG. 82 summarizes these effects. […] In contrast the rat tumor cell line was sensitive to the test compound and cell death occurred at the 500 dilution and could not be attributed to low pH.

Another data set relates to human hepatocytes. The data set can be described thus: Predicted Ctox from Tox-Panel. The format is cell-based. Conditions: 24 HR. As to the method: Studies such as these indicate that a preferred concentration for setting Ctox is the highest concentration at which there is no observed effect on any of the indicators being measured in the cluster analysis, especially a 24-hour cluster analysis. […] It will be apparent that 24 hour assays are more time-effective, and consequently, the 24 hour NOEL/Ctox represents a preferred data point to select as Ctox in a CATS assay. It will also be apparent that, with further time studies, it may be possible to select an equally suitable Ctox at other CATS assay time points (e.g., between 24 and 72 hours, or less than 24 hours).
In certain embodiments, the predicting comprises performing concentration response analyses of measurements from at least three separate assays that are employed in the cluster analysis. […] From these concentration response analyses, the highest concentration of the chemical compound at which a measurable toxic effect of the chemical compound is not observable, i.e. NOEL, is determined and the Ctox is identified as the concentration that correlates to the NOEL. […]
The results are summarized in Tables 14-17 and in FIGS. 83-102. […] Assay response is continually monitored to assure reliable results. […]

As for `CC[C@@]1(O)C(=O)OCc2c1cc1n(c2=O)Cc2cc3ccccc3nc2-1` [CAMPTOTHECIN, Camptothecin], in “Intracellular ATP levels”, the CC50 at 6 h was 300 µM and the CC50 at 24 h was found to be 9 µM. The “Predicted Ctox” value with human hepatocytes was 23 µM.
The matching figures for `C=C(C)[C@H]1Cc2c(ccc3c2O[C@@H]2COc4cc(OC)c(OC)cc4[C@@H]2C3=O)O1` [ROTENONE, Rotenone]: 10 µM, 10 µM and 0.6 µM.
